Reference: PMC9607644, “Glycoconjugation of Quinoline Derivatives Using the C-6 Position in Sugars as a Strategy for Improving the Selectivity and Cytotoxicity of Functionalized Compounds” (Molecules, 2022)

Columns and labels:
HCT-116 cells = assay: MTT cytotoxicity assay, HCT-116; type: cell-based, human; conditions: for IC50: Homo sapiens, HCT-116; for Selectivity Index (SI) HCT-116: IC50 NHDF-Neo / IC50 HCT-116, 72 h incubation; for inhibition of cell growth at the highest doses, HCT-116: 72 h
Method: An in vitro biological test package was performed for the obtained derivatives. […] The MTT test is a colorimetric method for detecting proliferating cells. It is based on the ability of the enzyme mitochondrial dehydrogenase to convert yellow tetrazole salt (MTT) into purple formazan. The amount of the product formed in the reaction, determined spectrophotometrically, is proportional to the number of living cells.
The in vitro cytotoxicity of the test compounds was determined by the MTT (3-[4,5–dimethylthiazol-2-yl]-2,5-diphenyltetrazolium bromide) test (Sigma-Aldrich, Taufkirchen, Germany) according to the manufacturer’s protocol. At the beginning, for each cell line were determined the optimal seeding densities to ensure exponential growth throughout the experimental period. The confluent layer of cells were trypsinized, collected, and suspended in a growth medium. […] Then, the culture medium was replaced with solutions of different concentrations of test compounds in a fresh medium. Stock solutions of test compounds were prepared in DMSO and diluted to final concentrations with appropriate volumes of the growth medium directly before the experiment. Cells suspended in a medium supplemented with 0.5% DMSO (the amount of DMSO necessary to dissolve the highest dose of the respective sample) were used as a control of the experiment. […] The compound-treated cells were incubated for a further 24–72 h. […] After this time, the MTT dye was carefully removed, and the acquired formazan crystals were dissolved by DMSO (Chempur, Piekary Śląskie, Poland). The proliferation was evaluated by measuring the formazan product’s absorbance at a wavelength of 570 nm with a microplate spectrophotometer (Epoch, BioTek, Winooski, VT, USA). All experiments were conducted in triplicate with four technical repeats for each tested concentration. Results were expressed as the percentage change in the viability of the test cells relative to the untreated control cells and calculated as the inhibitory concentration (IC50). […] The results are expressed as the average value ± standard deviation (SD).

NHDF-Neo cells = assay: MTT cytotoxicity assay, NHDF-Neo; type: cell-based; conditions: Homo sapiens, incubation time 72 h
Method: An in vitro biological test package was performed for the obtained derivatives. All newly synthesized compounds were assessed for their cytotoxic activity against human cell lines with increased GLUT expression: the colon cancer cell line (HCT-116) and the breast cancer cell line (MCF-7), as well as on normal human dermal fibroblasts cells (NHDF-Neo), using the MTT assay (3-(4,5-dimethylthiazol-2-yl)-2,5-diphenyltetrazolium bromide). The MTT test is a colorimetric method for detecting proliferating cells. It is based on the ability of the enzyme mitochondrial dehydrogenase to convert yellow tetrazole salt (MTT) into purple formazan. The amount of the product formed in the reaction, determined spectrophotometrically, is proportional to the number of living cells. The antiproliferative activity was expressed as the concentration that caused 50% inhibition of the growth of the population of cells treated with the test compounds relative to the control cells (inhibitory concentration activity—IC50). Table 1 and Table 2 summarize the IC50 values calculated for all tested compounds.
The in vitro cytotoxicity of the test compounds was determined by the MTT (3-[4,5–dimethylthiazol-2-yl]-2,5-diphenyltetrazolium bromide) test (Sigma-Aldrich, Taufkirchen, Germany) according to the manufacturer’s protocol. At the beginning, for each cell line were determined the optimal seeding densities to ensure exponential growth throughout the experimental period. The confluent layer of cells were trypsinized, collected, and suspended in a growth medium. The cell suspension were then seeded into 96-well plates at a density of 1 × 10^4 or 2 × 10^3 (HCT-116) or 5 × 10^3 (MCF-7, NHDF-Neo) per well and incubated for 24 h under standard conditions (5% CO2, 37 °C). Then, the culture medium was replaced with solutions of different concentrations of test compounds in a fresh medium. Stock solutions of test compounds were prepared in DMSO and diluted to final concentrations with appropriate volumes of the growth medium directly before the experiment. Cells suspended in a medium supplemented with 0.5% DMSO (the amount of DMSO necessary to dissolve the highest dose of the respective sample) were used as a control of the experiment. […] The compound-treated cells were incubated for a further 24–72 h. After that, the medium was removed and the MTT solution (50 µL, 0.5 mg/mL in PBS) was added into each well and incubated for another 3 h under standard conditions (5% CO2, 37 °C). After this time, the MTT dye was carefully removed, and the acquired formazan crystals were dissolved by DMSO (Chempur, Piekary Śląskie, Poland). The proliferation was evaluated by measuring the formazan product’s absorbance at a wavelength of 570 nm with a microplate spectrophotometer (Epoch, BioTek, Winooski, VT, USA). All experiments were conducted in triplicate with four technical repeats for each tested concentration. Results were expressed as the percentage change in the viability of the test cells relative to the untreated control cells and calculated as the inhibitory concentration (IC50). The IC50 values were defined as the drug concentration that was necessary to reduce cell proliferation to 50% of the untreated control and this parameter was calculated using CalcuSyn software (version 2.0, Biosoft, Cambridge, UK). The results are expressed as the average value ± standard deviation (SD).

MCF-7 cells = assay: Annexin V-FITC/PI apoptosis flow cytometry, MCF-7; type: cell-based, human; conditions: IC50 dose, 24 h
Text: Apoptosis is a natural biological process involving programmed cell death and plays an important role in maintaining correct homeostasis between cell proliferation and cell death. This is in contrast to necrosis, which is accompanied by acute inflammation, preceded by cell degradation due to the loss of the integrity of the cell membrane. It is possible to distinguish viable cells from apoptotic and necrotic cell fractions using Annexin V-FITC and Propidium Iodide (PI). Annexin V-FITC labels phosphatidylserine residues that, after the start of apoptosis, are located on the outer surface of the cell membrane, enabling the identification of cells in the early stages of apoptosis. PI binds stoichiometrically to intracellular DNA during late apoptosis and necrosis when the cell membrane has been damaged. This combination allows for the differentiation of early apoptotic (A+/P−), late apoptotic (A+/P+), necrosis (A−/P+), and normal (A−/P−) cells that can be quantified by flow cytometry.
The cell cycle and the type of cell death induced by the test compounds were measured by using flow cytometry according to the manufacturer’s protocol. […] Control cells were grown with fresh medium supplemented with 0.5% DMSO. After 24 h of incubation, the cells were collected by trypsinization. Then, samples were centrifuged (3 min, 2000 rpm, RT) and washed with PBS, after which the cells were centrifuged again (3 min, 2000 rpm, RT) and the supernatant was carefully removed. The resulting precipitate contained cells, which were used for flow cytometry experiments.
The fraction of dead cells after treatment with the test compounds were detected using the FITC Annexin-V Apoptosis Detection Kit with PI (BioLegend, San Diego, CA, USA). […] 250 μL of the Annexin-V Binding Buffer was then added and the samples were incubated in the dark on ice for 15 min.

Structure (SMILES)	IC50 (HCT-116 cells; MTT, incubation time 24 h)	IC50 (HCT-116 cells; MTT, incubation time 72 h)	Selectivity Index (SI) HCT-116 (HCT-116 cells)	IC50 (NHDF-Neo cells)	apoptotic cells, MCF-7 (MCF-7 cells)	growth inhibitory activity in words, HCT-116 (HCT-116 cells; MTT)	inhibition of cell growth at the highest doses, HCT-116 (HCT-116 cells; MTT)	apoptosis induction in words, MCF-7 (MCF-7 cells)
O[C@@H]1[C@@H](O)[C@@H](O[C@H]2O[C@H](Cn3cc(COc4cccc5cccnc45)nn3)[C@@H](O)[C@H](O)[C@H]2O)O[C@H](Cn2cc(COc3cccc4cccnc34)nn2)[C@H]1O [Compound D-2]	53.4 ± 5.14 µM	21.3 ± 0.94 µM	3.32	70.7 ± 0.75 µM	70%	–	–	–
OC[C@H]1O[C@@H](n2cc(COc3cccc4cccnc34)nn2)[C@H](O)[C@@H](O)[C@@H]1O [Compound E-2, reference compound]	212 ± 7.71 µM	162 ± 5.97 µM	1.43	233 ± 9.44 µM	–	practically did not affect the cell viability	–	–
CC(=O)OC1O[C@H](Cn2cc(COc3cccc4cccnc34)nn2)[C@@H](OC(C)=O)[C@H](OC(C)=O)[C@H]1OC(C)=O (stereo partly drawn) [Compound A-1]	83.5 ± 1.91 µM	12 ± 0.9 µM	10.83	130 ± 1.49 µM	35%	–	100%	–
OC1O[C@H](Cn2cc(COc3cccc4cccnc34)nn2)[C@@H](O)[C@H](O)[C@H]1O (stereo partly drawn) [Compound A-2]	191 ± 2.46 µM	22.3 ± 0.7 µM	14.21	317 ± 9.46 µM	39%	–	100%	–
CC(=O)OC[C@H]1O[C@@H](n2cc(COc3cccc4cccnc34)nn2)[C@H](OC(C)=O)[C@@H](OC(C)=O)[C@@H]1OC(C)=O [Compound E-1, reference compound]	–	45.7 ± 1.81 µM	1.21	55.3 ± 5.08 µM	–	–	100%	did not induce apoptosis
